The values below come from PMC10304164, “Laurequinone, a Lead Compound against Leishmania” (Marine Drugs, 2023).

Read-outs that look alike come from different tables or passages of the source.

Series [1] relates to Leishmania amazonensis promastigotes. Kind of series: Alamar Blue assay against promastigotes. The series is classed as cell-based. As to conditions: L. amazonensis promastigotes. The protocol: Leishmania amazonensis (MHOM/BR/77/LTB0016) promastigotes were cultured in RPMI 1640 medium (Gibco, Waltham, MA, USA), supplemented with 10 % FBS at 26 °C. Additionally, for maintenance, the promastigotes were cultured in SND medium (Sigma-Aldrich, Darmstadt, Germany) supplemented with 10 % FBS at 26 °C. Both media were supplemented with gentamicin at 10 µg/mL.
Compounds 1–5 were tested against promastigotes of Leishmania amazonensis using the colorimetric assay based on the Alamar Blue® reagent. In a 96-well plate, serial dilutions of the compounds and the promastigote form of the parasite (10^6 cells/mL) were added at a final volume of 200 µL.
In general terms: Alamar Blue is a resazurin reagent that responds to reducing activity.

Series [2] has as its system L. amazonensis intracellular amastigotes. Kind of series: Alamar Blue assay against intracellular amastigotes in murine macrophages. The series is classed as cell-based. As to conditions: Leishmania amazonensis, Macrophage; intracellular amastigotes of L. amazonensis. How it is done:
Briefly, in a 96-well plate, murine macrophages (2 × 10^5 cells/mL) were incubated in RPMI medium at 37 °C and 5 % CO2 atmosphere for 2–4 h. Promastigote forms of L. amazonensis (2 × 10^6 cells/mL) were added to reach a 1:10 macrophage:parasite ration, and after 24 h of incubation, the cells were washed to discard the not-introduced parasites. Serial dilutions of the compound were added in 100 µL of RPMI medium. Following 24 h of incubation, the plate was washed, and the cells were broken with SDS 0.05% for 30 s. Fresh medium was added, and 48 h later, 10% Alamar Blue® reagent was added.

The subject of series [3] is L. amazonensis promastigotes. Kind of series: Chromatin condensation analysis (Hoechst 33342/PI). The series is classed as cell-based, Leishmania amazonensis. To be noted: promastigotes treated with IC90, Hoechst/PI. The protocol: (§1) After incubation for 24 h at 26 °C, samples were centrifuged (3000 rpm, 10 min, 4 °C) and resuspended in 50 µL of PBS buffer. Different events involved in parasite cell death were studied following the manufacturer’s instructions for each kit.
The Invitrogen Chromatin Condensation/Dead Cell Apoptosis Kit, Hoechst 33342/propidium iodide (PI), was used to determine whether chromatin condensation was produced in the treated parasites. After adding the kit, the parasites were incubated for 30 min at 26 °C in the dark. The results were observed under the EVOS fluorescence microscope using DAPI (excitation 350 nm/emission 461 nm for Hoechst) and RFP (excitation 535 nm/emission 617 nm for PI) light cubes. The obtained images were divided into three types of results: low fluorescence of both stains when the cells were alive, intense fluorescence when the cell had condensed chromatin (programmed cell death), and intense red fluorescence when the cell had died.

Series [4] deals with L. amazonensis promastigotes. Kind of series: Phosphatidylserine externalization (annexin V/PI, TALI cytometer). The series is classed as cell-based, Leishmania amazonensis. To be noted: 24 h incubation with IC90. How it is done: as §1
A double-staining assay with annexin V/propidium iodide (PI) was performed using the Tali® Apoptosis Kit–Annexin V Alexa Fluor® 488 (Invitrogen^TM, Waltham, MA, USA). Briefly, after incubating the treated parasites for 24 h, they were washed with the buffer and incubated with annexin V for 20 min. Promastigotes were centrifuged and resuspended in buffer containing PI and incubated for 3 min. Finally, the stained cells were loaded into a slide and inserted in a TALI^TM image-based cytometer (Life Technologies, Carlsbad, CA, USA). Data were expressed in percentages, divided into three groups: apoptotic cells (green fluorescence), dead cells (red or red and green fluorescence), and live cells (no fluorescence), provided by TALI® data acquisition and analysis software (Life Technologies).

Series [5] has as its system L. amazonensis promastigotes. Kind of series: Reactive oxygen species analysis (CellROX Deep Red). It counts as cell-based, Leishmania amazonensis. To be noted: 24 h incubation with IC90. How it is done:
as §1
Oxidative stress is the result of an imbalance between the production of reactive oxygen species (ROS) and the cells’ ability to remove them. The CellROX® Deep Red Reagent (ThermoFisher Scientific, Waltham, MA, USA) was used to measure the oxidative stress. […] Treated parasites were incubated and resuspended in the buffer, the kit was added, and the plate was incubated for 30 min at 26 °C in the dark. Oxidative stress is represented as red fluorescence in the images obtained with the Cy5 light cube (excitation 644 nm/emission 665 nm) of the EVOS® FL Cell Imaging System (ThermoFisher Scientific, Waltham, MA, USA). Untreated parasites were used as a negative control, and hydrogen peroxide (600 mM) was used as a positive control.

Series [6] can be described thus: Cytotoxic activity, Alamar Blue. It counts as cell-based. To be noted: mouse, murine macrophages J774A.1, 24 h. The protocol: Murine macrophages (J774A.1) ATCC TIB-67 were cultured in RPMI, supplemented with 10% FBS at 37 °C and 5 % CO2 atmosphere.
In a 96-well plate, macrophages (2 × 10^5 cells/mL) were added. After completing the adherence (2–4 h), macrophages were incubated with serial dilutions of compounds 1–5. […] The selectivity index (SI) was calculated as the ratio of CC50 and IC50 [38].

Series [7] has as its system Leishmania amazonensis promastigotes. Nature of the series: ATP level analysis (CellTiter-Glo). It counts as cell-based. As to conditions: 24 h incubation with IC90, compared to untreated parasites. How it is done: as §1
ATP levels were measured using the CellTiter-Glo® Luminescent Cell Viability Assay kit (Promega, Fitchburg, WI, USA) and the EnSpire Multimode Plate Reader® (PerkinElmer, Waltham, MA, USA). After 24 h of incubation with laurequinone (1), the pellet was resuspended in the buffer and the kit. After 2 min of agitation and 10 min of incubation at room temperature in the dark, the luminescence was measured with the EnSpire Multimode Plate Reader®. The results were plotted against the negative control of untreated cells. Sodium azide (20 mM) was added as a positive control.

Series [8] concerns L. amazonensis promastigotes. Kind of series: Plasma membrane permeability (SYTOX Green). It counts as cell-based, Leishmania amazonensis. As to conditions: 24 h incubation with IC90. The protocol:
as §1
The SYTOX Green assay (Life Technologies, Madrid, Spain) was used to determine the damage in the plasma membrane permeability of treated cells. Parasites were incubated for 24 h with the compound and the stain was added and incubated for 15 min. […] Triton X-100, a well-known non-ionic surfactant, was added at 0.5% for 3 h before staining, as a positive control.

The subject of series [9] is Leishmania amazonensis promastigotes. Kind of series: Mitochondrial membrane potential analysis (JC-1). The series is classed as cell-based. As to conditions: 24 h incubation with IC90, JC-1. How it is done: as §1
The JC-1 Mitochondrial Membrane Potential Assay Kit® (Cayman Chemical, Ann Arbor, MI, USA) was used to determine whether an alteration in the mitochondrial potential occurred during cell death. The parasites treated with laurequinone were incubated with the staining solution for 20 min at 26 °C in the dark. Green and red fluorescence were measured using the EnSpire Multimode Plate Reader® (PerkinElmer). The results were expressed as the percentage relative to the untreated cells of the red (J-aggregates 540/570 nm)/green ratio (J-monomers 485/535 nm). The membrane-permeant JC-1 dye is widely used in apoptosis studies to monitor mitochondrial health. […] Consequently, mitochondrial depolarization is indicated by a decrease in the red/green fluorescence intensity ratio. Sodium azide (20 mM) was added as a positive control.

The subject of series [10] is L. donovani promastigotes. Set-up: method as in PMID 21717278. To be noted: L. donovani promastigotes ref 32; cited from earlier work.
The test system of series [11] is L. donovani axenic amastigotes. Set-up: method as in PMID 21717278. To be noted: L. donovani axenic amastigotes ref 32; cited from earlier work.
The subject of a further series is trypanothione reductase. Set-up: method as in PMID 21717278. As to conditions: cited from earlier work.
Setting [12] is: 72 h total, read-out: IC50 Promastigotes.
The mark [13] stands for this setting: Leishmania amazonensis, 72 h, 72 h total, read-out: IC50 Promastigotes.

On to `CC1=CC(=O)C([C@]2(C)CC[C@@H]3C[C@@]32C)=CC1=O` [Laurequinone (1), laurequinone], for which the IC50 in series [1] (setting [12]) was 1.87 ± 0.17 µM; in series [1] (setting [13]), less than 2 µM; in series [1] (Leishmania amazonensis, expressed in µg/mL, read-out: IC50), 0.43 mg/L; in series [2], 16.7 ± 6.08 µM. Besides, the chromatin condensation result in [3] is “no chromatin condensation was observed”. Also, the “cell population with exposed phosphatidylserine residues” value in [4] is reported as “approximately 30%”. Moreover, in series [5], the “ROS accumulation (CellROX Deep Red fluorescence)” value is given as “noticeable increase in visual fluorescence of CellROX Deep Red”. This compound also registered a CC50 at 24 h in [6] (J774A.1 macrophages) of 42.1 ± 1.3 µM. In addition, the ATP levels entry in [7] is listed as “no change in ATP levels”. The “plasma membrane permeability (SYTOX Green fluorescence)” value in series [8] is “no significant green fluorescence was observed”. In series [9], the “mitochondrial membrane potential (ΔΨm)” value is listed as “significant decrease in mitochondrial membrane potential”.

For `Cc1ccc([C@]2(C)CC[C@@H]3C[C@@]32C)c(O)c1` [Debromolaurinterol (3), debromolaurinterol], the figures for the IC50 in series [1] (setting [12]), in series [1] (setting [13]) and in series [2] were 12.48 ± 0.05 µM, less than 15 µM and 24.3 ± 5.09 µM, respectively. The same compound had a CC50 at 24 h in series [6] (J774A.1 macrophages) of 70.1 ± 12.9 µM.

In the case of `CCCCCCCCCCCCCCCCOP(=O)([O-])OCC[N+](C)(C)C` [Miltefosine, miltefosine, reference compound], the values for the IC50 in [1] (setting [13]) and in series [2] were 6.48 ± 0.25 µM and 3.12 ± 0.29 µM, respectively. The CC50 at 24 h in series [6] (J774A.1 macrophages) was 72.2 ± 3.07 µM.

As for `C=C1[C@@H](C)CC[C@@]1(C)c1cc(Br)c(C)cc1O` [Isolaurinterol (4), isolaurinterol], the values for the IC50 in [1] (setting [12]) and in [1] (setting [13]) were 10.1 ± 1.69 µM and less than 15 µM, respectively. Besides, the CC50 at 24 h in [6] stood at 24.6 ± 2.37 µM.

As to `CC1=CC(=O)c2c(O)cccc2C1=O` [Plumbagin], the IC50 in [10] is 0.34 µM; in [11], 0.21 µM. In addition, the “mechanism of action on trypanothione reductase” value with trypanothione reductase is “non-competitive inhibition of trypanothione reductase”.

For the compound `Cc1cc2c(cc1Br)[C@]1(C)CC[C@H](C)[C@]1(C)O2` [Aplysin (5), aplysin], in [1] (setting [13]), the half-inhibitory concentration (IC50) was 54.1 µM. The compound also gave a CC50 at 24 h in [6] of 1100 ± 40.6 µM.

As to `Cc1cc(O)c([C@]2(C)CC[C@@H]3C[C@@]32C)cc1Br` [Laurinterol (2), laurinterol], the IC50 in series [1] (setting [13]) was 34.5 ± 6.44 µM; in [2], 34.7 ± 4.06 µM. The CC50 at 24 h in [6] is 80.1 ± 7.79 µM.

As usually defined, the IC50 is the concentration needed to halve the response being measured. What is called CC50 is the concentration at which the toxic effect on the cells reaches its halfway point. A high value points to lower toxicity to the cells.
